A value given as a limit tells only on which side of the number the result lay.

For this assay, the target named is T1, Cdc7 (BEV coexpressed huCDC7/DBF4) (Homo sapiens, UniProt O00311).
T1 construct: made in house; host or cells: BEV (baculovirus expression vector) co-expression; insect cells are implied but no cell line is named
T1 sequence (O00311 whole entry): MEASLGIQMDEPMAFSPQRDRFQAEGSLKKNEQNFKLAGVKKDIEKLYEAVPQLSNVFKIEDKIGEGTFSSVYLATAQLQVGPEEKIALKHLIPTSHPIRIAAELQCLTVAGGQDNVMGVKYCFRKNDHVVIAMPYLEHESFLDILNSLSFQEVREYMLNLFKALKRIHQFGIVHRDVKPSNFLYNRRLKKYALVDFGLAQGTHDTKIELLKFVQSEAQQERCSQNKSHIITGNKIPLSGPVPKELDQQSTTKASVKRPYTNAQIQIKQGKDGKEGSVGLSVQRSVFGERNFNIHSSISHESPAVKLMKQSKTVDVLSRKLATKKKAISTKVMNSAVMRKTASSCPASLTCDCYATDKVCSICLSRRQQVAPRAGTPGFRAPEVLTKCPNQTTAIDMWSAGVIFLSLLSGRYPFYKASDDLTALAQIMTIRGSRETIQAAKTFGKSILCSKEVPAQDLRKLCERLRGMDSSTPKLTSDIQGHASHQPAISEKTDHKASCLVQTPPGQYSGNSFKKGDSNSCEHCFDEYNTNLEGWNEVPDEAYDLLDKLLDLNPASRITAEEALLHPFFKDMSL
T1 sequence (Q9UBU7 whole entry partner): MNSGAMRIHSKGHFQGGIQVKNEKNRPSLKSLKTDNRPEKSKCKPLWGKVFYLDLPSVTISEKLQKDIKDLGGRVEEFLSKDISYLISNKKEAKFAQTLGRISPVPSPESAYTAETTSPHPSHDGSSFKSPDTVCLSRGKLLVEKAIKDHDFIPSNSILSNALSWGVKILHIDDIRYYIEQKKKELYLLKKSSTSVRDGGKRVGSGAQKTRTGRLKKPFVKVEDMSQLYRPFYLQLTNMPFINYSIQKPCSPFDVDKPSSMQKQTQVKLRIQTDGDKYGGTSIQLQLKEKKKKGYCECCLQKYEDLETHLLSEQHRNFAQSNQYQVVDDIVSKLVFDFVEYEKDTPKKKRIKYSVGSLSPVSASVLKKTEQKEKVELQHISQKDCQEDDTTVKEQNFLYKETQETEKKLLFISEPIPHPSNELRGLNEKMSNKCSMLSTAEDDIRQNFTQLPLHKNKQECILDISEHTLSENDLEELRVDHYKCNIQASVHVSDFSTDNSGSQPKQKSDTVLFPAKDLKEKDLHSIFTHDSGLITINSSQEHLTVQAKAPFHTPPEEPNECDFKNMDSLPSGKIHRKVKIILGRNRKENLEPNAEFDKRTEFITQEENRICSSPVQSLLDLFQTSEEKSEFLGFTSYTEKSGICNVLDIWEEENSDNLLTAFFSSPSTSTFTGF
Put plainly: Cdc7 enzyme inhibition assay ([33P]ATP, biotinylated peptide substrate, FlashPlate). Type of assay: biochemical. The conditions noted are these: Table 3; enzyme inhibition data (Ki). The procedure: Cdc7 (BEV coexpressed huCDC7/DBF4) is prepared internally. Cdc7 assays are conducted as follows with final concentrations as listed. […] Reactions are quenched after 1 hr by the addition of 90 μL stop buffer (50 mM EDTA, 2M NaCl). […] (Ki) for exemplary compounds.
One may read the Ki as a dissociation constant, usually derived from enzyme kinetics or from competition with a known ligand. For the molecule `CC(C)C(=O)NC1CCC(Nc2cc(-c3c[nH]c4ncccc34)cc(Cl)n2)CC1` (centres unmarked) [Example 64, N-(4-{[6-chloro-4-(1H-pyrrolo[2,3-b]pyridin-3-yl)pyridin-2-yl]amino}cyclohexyl)-2-methylpropanamide], the Ki was less than 10 nM.
In the case of `O=C(NC1CCC(Nc2cc(-c3c[nH]c4ncccc34)cc(Cl)n2)CC1)c1ccccc1` (centres unmarked) [Example 65, N-(4-{[6-chloro-4-(1H-pyrrolo[2,3-b]pyridin-3-yl)pyridin-2-yl]amino}cyclohexyl)benzamide], the Ki is less than 10 nM.
Molecule `O=C(Nc1ccccc1)NC1CCC(Nc2cc(-c3c[nH]c4ncccc34)cc(Cl)n2)CC1` (centres unmarked) [Example 66, 1-(4-{[6-chloro-4-(1H-pyrrolo[2,3-b]pyridin-3-yl)pyridin-2-yl]amino}cyclohexyl)-3-phenylurea] registered a Ki of less than 10 nM.
On to `Clc1cc(-c2c[nH]c3ncccc23)cc(NC2CCCC(NCc3cccnc3)C2)n1` (centres unmarked) [Example 67, N-[6-chloro-4-(1H-pyrrolo[2,3-b]pyridin-3-yl)pyridin-2-yl]-N′-(pyridin-3-ylmethyl)cyclohexane-1,3-diamine], for which the Ki was less than 10 nM.
For the molecule `Clc1cc(-c2c[nH]c3ncccc23)cc(NC2CCCC(NC3CCC3)C2)n1` (centres unmarked) [Example 68, N-[6-chloro-4-(1H-pyrrolo[2,3-b]pyridin-3-yl)pyridin-2-yl]-1-N′-cyclobutylcyclohexane-1,3-diamine], the inhibition constant Ki is less than 10 nM.
With `O=C(NC1CCCC(Nc2cc(-c3c[nH]c4ncccc34)cc(Cl)n2)C1)C1CC1` (centres unmarked) [Example 69, N-(3-{[6-chloro-4-(1H-pyrrolo[2,3-b]pyridin-3-yl)pyridin-2-yl]amino}cyclohexyl)cyclopropanecarboxamide], the Ki is less than 10 nM.
With `CCCN1CCC(C(=O)NC2CCCC(Nc3cc(-c4c[nH]c5ncccc45)cc(Cl)n3)C2)CC1` (centres unmarked) [Example 70, N-(3-{[6-chloro-4-(1H-pyrrolo[2,3-b]pyridin-3-yl)pyridin-2-yl]amino}cyclohexyl)-1-propylpiperidine-4-carboxamide], the inhibition constant (Ki) is less than 10 nM.
Turning to `O=C(NC1CCCC(Nc2cc(-c3c[nH]c4ncccc34)cc(Cl)n2)C1)c1cc[nH]n1` (centres unmarked) [Example 71, N-(3-{[6-chloro-4-(1H-pyrrolo[2,3-b]pyridin-3-yl)pyridin-2-yl]amino}cyclohexyl)-1H-pyrazole-3-carboxamide], the Ki was less than 10 nM.
`Clc1cc(-c2c[nH]c3ncccc23)cc(NC2CCCC(NCC3CCCNC3)C2)n1` (centres unmarked) [Example 72, N-[6-chloro-4-(1H-pyrrolo[2,3-b]pyridin-3-yl)pyridin-2-yl]-N′-(piperidin-3-ylmethyl)cyclohexane-1,3-diamine]: the Ki was less than 10 nM.
The result for `O=C(CNC(=O)c1ccccc1)NC1CCCC(Nc2cc(-c3c[nH]c4ncccc34)cc(Cl)n2)C1` (centres unmarked) [Example 73, N-{2-[(3-{[6-chloro-4-(1H-pyrrolo[2,3-b]pyridin-3-yl)pyridin-2-yl]-amino}cyclohexyl)amino]-2-oxoethyl}benzamide] reads less than 10 nM; that for `O=S(=O)(NC1CCCC(Nc2cc(-c3c[nH]c4ncccc34)cc(Cl)n2)C1)C1CC1` (centres unmarked) [Example 76, N-(3-{[6-chloro-4-(1H-pyrrolo[2,3-b]pyridin-3-yl)pyridin-2-yl]amino}cyclohexyl)cyclopropanesulfonamide], less than 10 nM; that for `CCCS(=O)(=O)NC1CCCC(Nc2cc(-c3c[nH]c4ncccc34)cc(Cl)n2)C1` (centres unmarked) [Example 77, N-(3-{[6-chloro-4-(1H-pyrrolo[2,3-b]pyridin-3-yl)pyridin-2-yl]amino}cyclohexyl)propane-1-sulfonamide], less than 10 nM.
Regarding `Cc1ccc(S(=O)(=O)NC2CCCC(Nc3cc(-c4c[nH]c5ncccc45)cc(Cl)n3)C2)cc1` (centres unmarked) [Example 78, N-(3-{[6-chloro-4-(1H-pyrrolo[2,3-b]pyridin-3-yl)pyridin-2-yl]amino}cyclohexyl)-4-methylbenzenesulfonamide], the Ki is less than 10 nM.
Next, `CCNC(=O)NC1CCCC(Nc2cc(-c3c[nH]c4ncccc34)cc(Cl)n2)C1` (centres unmarked) [Example 79, 1-(3-{[6-chloro-4-(1H-pyrrolo[2,3-b]pyridin-3-yl)pyridin-2-yl]amino}cyclohexyl)-3-ethylurea]: less than 10 nM; `O=C(NC1CCCC1)NC1CCCC(Nc2cc(-c3c[nH]c4ncccc34)cc(Cl)n2)C1` (centres unmarked) [Example 80, 1-(3-{[6-chloro-4-(1H-pyrrolo[2,3-b]pyridin-3-yl)pyridin-2-yl]amino}cyclohexyl)-3-cyclopentylurea]: less than 10 nM.
`CC(C)(CNc1cc(-c2c[nH]c3ncccc23)cc(Cl)n1)CNS(=O)(=O)c1cccnc1` [Example 81, N-(3-{[6-chloro-4-(1H-pyrrolo[2,3-b]pyridin-3-yl)pyridin-2-yl]amino}-2,2-dimethylpropyl)pyridine-3-sulfonamide] came in with a Ki of 10 to 100 nM.
`CC(C)(CNc1cc(-c2c[nH]c3ncccc23)cc(Cl)n1)CNS(=O)(=O)C1CC1` [Example 82, N-(3-{[6-chloro-4-(1H-pyrrolo[2,3-b]pyridin-3-yl)pyridin-2-yl]amino}-2,2-dimethylpropyl)cyclopropanesulfonamide] gave an inhibitory constant (Ki) of less than 10 nM.
`O=S(=O)(NC1CCCC(Nc2cc(-c3c[nH]c4ncccc34)cc(Cl)n2)C1)c1cccs1` (centres unmarked) [Example 83, N-(3-{[6-chloro-4-(1H-pyrrolo[2,3-b]pyridin-3-yl)pyridin-2-yl]amino}cyclohexyl)thiophene-2-sulfonamide] showed a Ki of less than 10 nM.
On to `CCCCC(=O)Nc1cc(-c2c[nH]c3ncccc23)cc(Cl)n1` [Example 84, N-[6-chloro-4-(1H-pyrrolo[2,3-b]pyridin-3-yl)pyridin-2-yl]pentanamide], for which the Ki is less than 10 nM.
`O=C(Nc1cc(-c2c[nH]c3ncccc23)cc(Cl)n1)C1CCCCC1` [Example 85, N-[6-chloro-4-(1H-pyrrolo[2,3-b]pyridin-3-yl)pyridin-2-yl]cyclohexanecarboxamide] registered a Ki of less than 10 nM.
For the molecule `O=C(Nc1cc(-c2c[nH]c3ncccc23)cc(Cl)n1)c1ccccc1` [Example 86, N-[6-chloro-4-(1H-pyrrolo[2,3-b]pyridin-3-yl)pyridin-2-yl]benzamide], the inhibition constant (Ki) was less than 10 nM.
Next, `O=S(=O)(NCCNc1cc(-c2c[nH]c3ncccc23)cc(Cl)n1)C1CC1` [Example 89, N-(2-{[6-chloro-4-(1H-pyrrolo[2,3-b]pyridin-3-yl)pyridin-2-yl]amino}ethyl)cyclopropanesulfonamide]: less than 10 nM; `O=S(=O)(NCCNc1cc(-c2c[nH]c3ncccc23)cc(Cl)n1)c1cccnc1` [Example 90, N-(2-{[6-chloro-4-(1H-pyrrolo[2,3-b]pyridin-3-yl)pyridin-2-yl]amino}ethyl)pyridine-3-sulfonamide]: less than 10 nM; `Clc1cc(-c2c[nH]c3ncccc23)cc(NC2CCC2)n1` [Example 92, 6-chloro-N-cyclobutyl-4-(1H-pyrrolo[2,3-b]pyridin-3-yl)pyridin-2-amine]: less than 10 nM.
In turn, `CN(C)[C@H]1CC[C@H](Nc2cc(-c3c[nH]c4ncccc34)cc(Cl)n2)CC1` [Example 93, trans-N′-[6-chloro-4-(1H-pyrrolo[2,3-b]pyridin-3-yl)pyridin-2-yl]-N,N-dimethylcyclohexane-1,4-diamine] registered a Ki of less than 10 nM.
In turn, `CCN1CCCC(CNc2cc(-c3c[nH]c4ncccc34)cc(Cl)n2)C1` (centres unmarked) [Example 94, 6-chloro-N-[(1-ethylpiperidin-3-yl)methyl]-4-(1H-pyrrolo[2,3-b]pyridin-3-yl)pyridin-2-amine] registered a Ki of less than 10 nM.

Source of the values: patent US8435980B2 (AbbVie Inc., priority 2009, dated 2013).
